Data from patent US20230346831A1, “METHODS FOR TREATING […] USING LOW DOSE CARBON MONOXIDE” (priority 2020, published 2023).

Legend:
[1] = test system: HiF1α; test: Western blot analysis; assay type: cell-based, human; settings: MCF7/TGL and MDA-MB-231/TGL cells; 250 ppm CO for 16 hours vs standard incubator
Method: 1.5 × 10^6 cells were seeded in 6-cm cell culture plates with DMEM containing 10% FBS, 0.2 mM L-glutamine and 1% penicillin/streptomycin. Additionally, MCF7/TGL/pQ was cultured in media containing 0.5 µgml^-1 puromycin and 25 mM HEPES. After 16 hours of incubation, cells were lysed with RIPA buffer (0.1% SDS, 1% TritonX-100, 0.5% sodium deoxycholate, 25 mM Tris pH 8.0, 150 mM NaCl, and 1 mM EDTA) supplemented with a protease inhibitor mixture and PhosSTOP (Roche, Basel, Switzerland). Proteins were quantified with Bradford assay (Bio-Rad, Hercules CA). Equal amounts of proteins were separated with SDS-PAGE and transferred to nitrocellulose membranes. […] Protein bands were visualized by enhanced chemical luminescence (Pierce, Dallas, TX).
To investigate whether 250 ppm CO induces hypoxia, HiF1α protein levels in low-dose CO-treated MCF7/TGL and MDA-MB-231/TGL cells were examined. […] To assess the intracellular heme levels affected by low-dose CO treatment, oxidized heme levels in the form of hemin (Fe^3+ state) were measured because free heme (Fe^2+ state) is readily oxidized and cannot be measured. […]

[2] = test system: CYP1B1; test: Western blot analysis; assay type: cell-based, human; settings: 250 ppm CO
Method: 1.5 × 10^6 cells were seeded in 6-cm cell culture plates with DMEM containing 10% FBS, 0.2 mM L-glutamine and 1% penicillin/streptomycin. Additionally, MCF7/TGL/pQ was cultured in media containing 0.5 µgml^-1 puromycin and 25 mM HEPES. After 16 hours of incubation, cells were lysed with RIPA buffer (0.1% SDS, 1% TritonX-100, 0.5% sodium deoxycholate, 25 mM Tris pH 8.0, 150 mM NaCl, and 1 mM EDTA) supplemented with a protease inhibitor mixture and PhosSTOP (Roche, Basel, Switzerland). Proteins were quantified with Bradford assay (Bio-Rad, Hercules CA). Equal amounts of proteins were separated with SDS-PAGE and transferred to nitrocellulose membranes. To visualize equal protein loading, blots were stained with Ponceau S. Blots were incubated in 5% non-fat milk in TBST, probed with primary antibodies to CYP1B1 (1:1,000, Abcam, Cambridge, United Kingdom, Cat. No. 32649), HO-1 (1:1,000, Santa Cruz Biotechnology, Dallas, TX, Cat. No. 136960), BACH1 (1:1,000, ABclonal, Woburn, MA, Cat. No. A5393), E-cadherin (1:1,1000, BD Biosciences (Cat. No. 610181), San Jose, CA), α-tubulin (1:1,000, Sigma (Cat. No. T5168), St. Louis MO), and vimentin (1:1,000, Cell Signaling Tech (Cat. No. 5741), Danvers, MA), and then were incubated with horseradish peroxidase-conjugated secondary antibodies. Protein bands were visualized by enhanced chemical luminescence (Pierce, Dallas, TX). […]

[C-]#[O+] [CO, Carbon monoxide]
HiF1α protein levels [1]: not changed | CYP1B1 protein levels ([2]; MCF7 and MDA-MB-231 cells): significantly reduced | CYP1B1 protein levels ([2]; PDAC 8988T cells): reduced
